In patent publication US10738028B2, “Spiro three-membered ring, spiro five-membered ring peptide deformylase inhibitor and use thereof in antibacteria and anti-tumor” (priority 2016, dated 2020):

Experiments:
Type in all cases: cell-based
[1] = tested on: Moraxella catarrhalis (BCA); assay: MIC, two-fold agar dilution (CLSI), clinical isolates
Method in brief: (§1)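 Test samples were assayed by the CLSI-recommended two-fold agar dilution method, and the minimum inhibitory concentration against each tested strain was determined.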

[2] = tested on: Enterococcus faecalis (EFA); assay: as above
Method in brief: as §1

[3] = tested on: Enterococcus faecium (EFM); assay: as above
Method in brief: as §1

[4] = tested on: methicillin-resistant Staphylococcus aureus (MRSA); assay: as above
Method in brief: as §1

[5] = tested on: Escherichia coli (including ESBLs, non-ESBLs); assay: as above
Method in brief: as §1

[6] = tested on: methicillin-resistant Staphylococcus epidermidis (MRSE); assay: as above
Method in brief: as §1

[7] = tested on: Streptococcus pneoumoniae (SPN); assay: as above
Method in brief: as §1

[8] = tested on: methicillin-sensitive Staphylococcus epidermidis (MSSE); assay: as above
Method in brief: as §1

[9] = tested on: methicillin-sensitive Staphylococcus aureus (MSSA); assay: as above
Method in brief: as §1

[10] = tested on: HCT-116 colorectal cancer cell line; assay: CCK-8 proliferation inhibition; conditions: concentration of 30 μM; 72 hours; CCK-8; 30 µM
Method in brief: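 Proliferation over 72 hours of compound treatment was measured with CCK-8 against a 1‰ DMSO control.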

[11] = tested on: A549 lung cancer cell line; assay: CCK-8 proliferation inhibition; conditions: concentration of 30 μM
Method in brief: (§2)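 Plating at 2000 cells/well, then incubation overnight at 37° C. Next, a range of compound concentrations for 72 hours (control 1‰ DMSO). Finally, medium decanted and CCK-8 diluted 1:10 added.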

[12] = tested on: BEL-7402 liver cancer cell line; assay: CCK-8 proliferation inhibition; conditions: concentration of 30 μM, 72 hours, 30 µM
Method in brief: as §2

[13] = tested on: MGC-803 gastric cancer cell line; assay: CCK-8 proliferation inhibition; conditions: concentration of 30 μM
Method in brief: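 Using media specific to each line (1640 for MGC-803 and Jurkat, F12 for PC3, DMEM high glucose for MCF-7, each with 10% newborn bovine serum), cells at 2000/well were treated for 72 h with serially formulated compounds, then assessed with CCK-8 diluted 1:10.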

O=C(C[C@@H](CC1CCCC1)C(=O)N1CC2(CC2)C[C@H]1C(=O)Nc1cnccn1)NO [Example 62]
Anti-bacterial activity (MIC), strain BCA 14-1 ([1]; clinical isolate BCA 14-1): 2 µg/mL
Anti-bacterial activity (MIC), strain BCA 14-4 ([1]; clinical isolate BCA 14-4): 2 µg/mL
Anti-bacterial activity (MIC), strain BCA 14-5 ([1]; clinical isolate BCA 14-5): 0.5 µg/mL
Anti-bacterial activity (MIC), strain BCA 14-6 ([1]; clinical isolate BCA 14-6): 2 µg/mL
Anti-bacterial activity (MIC), strain BCA 14-7 ([1]; clinical isolate BCA 14-7): 2 µg/mL
Anti-bacterial activity (MIC), strain BCA 14-8 ([1]; clinical isolate BCA 14-8): 2 µg/mL
Anti-bacterial activity (MIC), strain BCA 14-10 ([1]; clinical isolate BCA 14-10): 1 µg/mL
Anti-bacterial activity (MIC), strain EFA 15-1 ([2]; clinical isolate EFA 15-1): > 32 µg/mL
Anti-bacterial activity (MIC), strain EFA 15-2 ([2]; clinical isolate EFA 15-2): > 32 µg/mL
Anti-bacterial activity (MIC), strain EFA 15-3 ([2]; clinical isolate EFA 15-3): > 32 µg/mL
Anti-bacterial activity (MIC), strain EFA 15-4 ([2]; clinical isolate EFA 15-4): > 32 µg/mL
Anti-bacterial activity (MIC), strain EFA 15-5 ([2]; clinical isolate EFA 15-5): > 32 µg/mL
Anti-bacterial activity (MIC), strain EFA 15-6 ([2]; clinical isolate EFA 15-6): > 32 µg/mL
Anti-bacterial activity (MIC), strain EFA 15-9 ([2]; clinical isolate EFA 15-9): 8 µg/mL
Anti-bacterial activity (MIC), strain EFM 15-1 ([3]; clinical isolate EFM 15-1): > 32 µg/mL
Anti-bacterial activity (MIC), strain EFM 15-2 ([3]; clinical isolate EFM 15-2): > 32 µg/mL
Anti-bacterial activity (MIC), strain EFM 15-3 ([3]; clinical isolate EFM 15-3): > 32 µg/mL
Anti-bacterial activity (MIC), strain EFM 15-4 ([3]; clinical isolate EFM 15-4): > 32 µg/mL
Anti-bacterial activity (MIC), strain EFM 15-5 ([3]; clinical isolate EFM 15-5): 0.5 µg/mL
Anti-bacterial activity (MIC), strain EFM 15-6 ([3]; clinical isolate EFM 15-6): 0.5 µg/mL
Anti-bacterial activity (MIC), strain MRSA 15-1 ([4]; clinical isolate MRSA 15-1): 0.125 µg/mL
Anti-bacterial activity (MIC), strain MRSA 15-2 ([4]; clinical isolate MRSA 15-2): 0.5 µg/mL
Anti-bacterial activity (MIC), strain MRSA 15-3 ([4]; clinical isolate MRSA 15-3): 0.5 µg/mL
Anti-bacterial activity (MIC), strain MRSA 15-4 ([4]; clinical isolate MRSA 15-4): 0.5 µg/mL
Anti-bacterial activity (MIC), strain ECO+ 15-1 ([5]; clinical isolate ECO+ 15-1): 0.5 µg/mL
Anti-bacterial activity (MIC), strain ECO+ 15-2 ([5]; clinical isolate ECO+ 15-2): 0.5 µg/mL
Anti-bacterial activity (MIC), strain ECO+ 15-3 ([5]; clinical isolate ECO+ 15-3): 0.5 µg/mL
Anti-bacterial activity (MIC), strain ECO+ 15-4 ([5]; clinical isolate ECO+ 15-4): 0.5 µg/mL
Anti-bacterial activity (MIC), strain ECO− 15-1 ([5]; clinical isolate ECO− 15-1): 16 µg/mL
Anti-bacterial activity (MIC), strain ECO− 15-2 ([5]; clinical isolate ECO− 15-2): 16 µg/mL
Anti-bacterial activity (MIC), strain ECO− 15-3 ([5]; clinical isolate ECO− 15-3): 16 µg/mL
Anti-bacterial activity (MIC), strain ECO− 15-4 ([5]; clinical isolate ECO− 15-4): 16 µg/mL
Anti-bacterial activity (MIC), strain MRSE 15-1 ([6]; clinical isolate MRSE 15-1): 16 µg/mL
Anti-bacterial activity (MIC), strain MRSE 15-2 ([6]; clinical isolate MRSE 15-2): 16 µg/mL
Anti-bacterial activity (MIC), strain MRSE 15-3 ([6]; clinical isolate MRSE 15-3): 0.5 µg/mL
Anti-bacterial activity (MIC), strain MRSE 15-7 ([6]; clinical isolate MRSE 15-7): 0.5 µg/mL
Anti-bacterial activity (MIC), strain SPN 16-2 ([7]; clinical isolate SPN 16-2): 0.25 µg/mL
Anti-bacterial activity (MIC), strain SPN 16-4 ([7]; clinical isolate SPN 16-4): 0.5 µg/mL
Anti-bacterial activity (MIC), strain MSSE 15-3 ([8]; clinical isolate MSSE 15-3): 0.5 µg/mL
Anti-bacterial activity (MIC), strain MSSE 15-4 ([8]; clinical isolate MSSE 15-4): 0.5 µg/mL
Anti-bacterial activity (MIC), strain MSSE 15-5 ([8]; clinical isolate MSSE 15-5): 0.5 µg/mL
Anti-bacterial activity (MIC), strain MSSE 15-6 ([8]; clinical isolate MSSE 15-6): 0.5 µg/mL
Anti-bacterial activity (MIC), strain MSSA 15-3 ([9]; clinical isolate MSSA 15-3): 0.5 µg/mL
Anti-bacterial activity (MIC), strain MSSA 15-4 ([9]; clinical isolate MSSA 15-4): 0.5 µg/mL
Anti-bacterial activity (MIC), strain MSSA 15-5 ([9]; clinical isolate MSSA 15-5): 16 µg/mL
Anti-bacterial activity (MIC), strain MSSA 15-6 ([9]; clinical isolate MSSA 15-6): 16 µg/mL
HCT116 inhibition rate/% [10]: 79%
inhibition at 30 µM ([11]; Homo sapiens, A549, 72 h): > 50%
Inhibition of proliferation, Lung cancer A549 ([11]; 72 hours, 30 µM): 59%
Inhibition of proliferation, Liver cancer BEL-7402 [12]: 75%
inhibition at 30 µM ([13]; Homo sapiens, MGC-803, 72 h): > 50%
Inhibition of proliferation, Gastric cancer MGC-803 ([13]; 72 hours, 30 µM): 64%
